Columns and labels:
Assay type in all cases: biochemical
BTK = target: T1, BTK (Homo sapiens, UniProt Q06187); assay: Btk in vitro inhibitory activity (TR-FRET, mobility shift or radiometric filter binding kinase assay); conditions: determined using one of the methods outlined in Example 47a, 47b, and 47c
T1 construct: purified from insect cells as a full-length construct containing a N-terminal 6×-His tag; His6 (N); made in house; host or cells: insect cells (baculovirus, Sf21)
Method: (§1) Btk kinase activity is determined using a time-resolved fluorescence resonance energy transfer (TR-FRET) methodology. Measurements are performed in a reaction volume of 50 μL using 96-well assay plates. […] The reaction is quenched by the addition of 1.2 equivalents of EDTA (relative to divalent cation) in 25 μL of 1× Lance buffer (Perkin-Elmer). Streptavidin-APC (Perkin-Elmer) and Eu-labeled p-Tyr100 antibody (Perkin-Elmer) in 1× Lance buffer are added in a 25 μL volume to give final concentrations of 100 nM and 2.5 nM, respectively, and the mixture is allowed to incubate for one hour. The TR-FRET signal is measured on a multimode plate reader with an excitation wavelength (λEx) of 330 nm and detection wavelengths (λEm) of 615 and 665 nm. Activity is determined by the ratio of the fluorescence at 665 nm to that at 615 nm. For each compound, enzyme activity is measured at various concentrations of compound. Negative control reactions are performed in the absence of inhibitor in replicates of six, and two no-enzyme controls are used to determine baseline fluorescence levels. Inhibition constants, Ki(app), ware obtained using the program BatchKi (Kuzmic et al. (2000), Anal. Biochem. 286:45-50). IC50s are obtained according to the equation: IC50={Ki(app)/(1+[ATP]/Km^ATP)}+[E]total/2;
(§2) For all kinases, [ATP]=Km^ATP, [Btk]total=0.5 nM and [Lck]total=6 nM.
Kinase activity is measured in vitro using electrophoretic mobility shift assay. The kinase reactions are assembled in a total volume of 25 μL in 384 well plates. […] The reaction is incubated for one hour and is quenched by the addition of 45 μL of termination buffer (100 mM HEPES, pH7.5, 0.01% Triton X-100, 30 mM EDTA). The terminated reactions are analyzed using 12 channel LabChip® 3000 microfluidic detection instrument (Caliper Life Sciences). The enzymatic phosphorylation of the peptide results in a change in net charge, enabling electrophoretic separation of product from substrate peptide. As substrate and product peptides are separated, two peaks of fluorescence are observed. Change in the relative fluorescence intensity of the substrate and product peaks is the parameter measured, reflecting enzyme activity. In the presence of an inhibitor, the ratio between product and substrate is altered: the signal of the product decreases, while the signal of the substrate increases.
Activity in each sample is determined as the product to sum ratio (PSR): P/(S+P), where P is the peak height of the product peptide and S is the peak height of the substrate peptide. For each compound, enzyme activity is measured at various concentrations (12 concentrations of compound spaced by 3× dilution intervals). Negative control samples (0%-inhibition in the absence of inhibitor) and positive control samples (100%-inhibition, in the presence of 20 mM EDTA) are assembled in replicates of four and are used to calculate %-inhibition values for each inhibitor at each concentration. Percent inhibition (Pinh) is determined using following equation: Pinh=(PSR0%−PSRinh)/(PSR0%−PSR100%)*100,
where PSRmh is the product sum ratio in the presence of inhibitor, PSR0% is the average product sum ration in the absence of inhibitor and PSR100% is the average product sum ratio in 100%-inhibition control samples;
The IC50 values of inhibitors are determined by 4 parameter sigmoidal dose-response model fitting of the inhibition curves (Pinh versus inhibitor concentration) using XLfit 4 software.
Human Btk kinase (Genbank accession # NP_000052) was purified from insect cells as a full-length construct containing a N-terminal 6×-His tag. Btk kinase activity was determined using a radiometric filter binding assay. Measurements are performed in a low μL reaction volume 384-well assay plates. […]

EGFR = EGFR (Homo sapiens, UniProt P00533); assay: EGFR kinase inhibition (in vitro kinase assay)
Chain of EGFR (P00533 25-1210, species assumed): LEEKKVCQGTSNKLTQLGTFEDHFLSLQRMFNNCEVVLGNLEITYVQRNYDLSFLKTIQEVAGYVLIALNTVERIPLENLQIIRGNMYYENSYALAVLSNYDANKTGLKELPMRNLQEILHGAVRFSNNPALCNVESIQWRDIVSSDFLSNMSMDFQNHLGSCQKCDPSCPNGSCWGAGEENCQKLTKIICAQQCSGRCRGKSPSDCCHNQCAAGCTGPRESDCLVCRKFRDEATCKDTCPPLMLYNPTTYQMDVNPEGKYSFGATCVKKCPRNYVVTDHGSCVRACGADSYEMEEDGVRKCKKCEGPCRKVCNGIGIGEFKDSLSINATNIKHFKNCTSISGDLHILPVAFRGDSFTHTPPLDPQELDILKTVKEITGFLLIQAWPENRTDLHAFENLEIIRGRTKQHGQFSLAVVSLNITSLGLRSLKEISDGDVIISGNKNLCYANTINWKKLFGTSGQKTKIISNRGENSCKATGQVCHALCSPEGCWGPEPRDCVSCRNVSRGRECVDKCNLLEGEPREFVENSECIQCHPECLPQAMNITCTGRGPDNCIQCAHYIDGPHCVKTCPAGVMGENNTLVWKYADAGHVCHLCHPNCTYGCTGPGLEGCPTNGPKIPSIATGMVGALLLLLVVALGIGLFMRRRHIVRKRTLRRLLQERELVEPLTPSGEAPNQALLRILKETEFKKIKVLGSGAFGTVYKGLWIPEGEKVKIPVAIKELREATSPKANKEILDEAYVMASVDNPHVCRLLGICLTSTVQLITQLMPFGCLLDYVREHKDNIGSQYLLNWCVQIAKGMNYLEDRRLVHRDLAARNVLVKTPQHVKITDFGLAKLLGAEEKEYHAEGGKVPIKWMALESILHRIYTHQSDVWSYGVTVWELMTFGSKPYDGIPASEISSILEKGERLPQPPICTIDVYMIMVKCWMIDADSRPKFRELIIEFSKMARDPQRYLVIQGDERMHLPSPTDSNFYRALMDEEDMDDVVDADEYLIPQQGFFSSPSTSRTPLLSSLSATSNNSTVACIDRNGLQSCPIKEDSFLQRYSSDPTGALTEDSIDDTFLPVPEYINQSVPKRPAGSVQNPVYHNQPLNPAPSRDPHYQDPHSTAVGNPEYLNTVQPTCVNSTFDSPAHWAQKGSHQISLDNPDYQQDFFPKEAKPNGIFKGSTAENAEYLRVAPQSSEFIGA

Lck = Lck (Homo sapiens, UniProt P06239); assay: Lck kinase inhibition (in vitro kinase assay)
Chain of Lck (P06239 whole entry, species assumed): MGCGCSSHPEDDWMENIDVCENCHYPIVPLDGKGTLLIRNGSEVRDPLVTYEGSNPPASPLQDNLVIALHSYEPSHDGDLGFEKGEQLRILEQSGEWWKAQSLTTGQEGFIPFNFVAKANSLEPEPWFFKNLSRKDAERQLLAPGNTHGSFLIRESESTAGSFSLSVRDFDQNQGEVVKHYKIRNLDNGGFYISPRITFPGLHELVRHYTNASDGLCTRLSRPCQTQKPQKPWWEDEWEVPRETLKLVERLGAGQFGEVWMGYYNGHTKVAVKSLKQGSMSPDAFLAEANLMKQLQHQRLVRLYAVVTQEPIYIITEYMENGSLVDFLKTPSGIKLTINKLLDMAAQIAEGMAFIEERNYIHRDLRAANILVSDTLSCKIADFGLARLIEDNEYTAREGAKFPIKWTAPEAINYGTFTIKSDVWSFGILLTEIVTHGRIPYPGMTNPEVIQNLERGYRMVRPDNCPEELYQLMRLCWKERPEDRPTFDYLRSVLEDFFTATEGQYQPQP
Method: as §1, §2

T1 sequence (Q06187 whole entry): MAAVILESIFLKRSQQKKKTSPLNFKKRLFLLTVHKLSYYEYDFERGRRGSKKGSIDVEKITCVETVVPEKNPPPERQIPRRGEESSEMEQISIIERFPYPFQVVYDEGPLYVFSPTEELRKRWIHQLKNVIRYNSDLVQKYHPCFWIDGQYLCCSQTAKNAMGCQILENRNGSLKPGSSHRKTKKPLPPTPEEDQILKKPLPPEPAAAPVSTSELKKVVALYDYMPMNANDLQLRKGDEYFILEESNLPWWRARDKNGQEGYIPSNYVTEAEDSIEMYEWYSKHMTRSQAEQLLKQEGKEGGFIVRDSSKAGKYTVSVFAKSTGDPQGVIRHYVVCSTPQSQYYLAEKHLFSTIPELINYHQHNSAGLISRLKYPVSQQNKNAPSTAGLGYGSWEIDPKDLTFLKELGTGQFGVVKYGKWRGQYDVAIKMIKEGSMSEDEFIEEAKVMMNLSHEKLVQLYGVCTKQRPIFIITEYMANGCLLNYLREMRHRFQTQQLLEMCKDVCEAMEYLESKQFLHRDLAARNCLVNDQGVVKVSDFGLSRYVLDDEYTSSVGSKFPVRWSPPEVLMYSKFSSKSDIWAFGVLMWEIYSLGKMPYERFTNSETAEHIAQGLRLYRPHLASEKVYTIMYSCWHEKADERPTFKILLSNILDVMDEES

Compound	IC50 (BTK)	IC50 (EGFR)	IC50 (Lck)
COc1cc(-c2nn([C@@H]3CCN(C(=O)/C=C/CN(C)C4CC4)C3)c3ncnc(N)c23)ccc1C(=O)Nc1cc(C)ccn1 [Example 5, (R,E)-4-(4-amino-1-(1-(4-(cyclopropyl(methyl)amino)but-2-enoyl)pyrrolidin-3-yl)-1H-pyrazolo[3,4-d]pyrimidin-3-yl)-2-methoxy-N-(4-methylpyridin-2-yl)benzamide]	< 0.1 µM	1 to 10 µM	1 to 10 µM
Cc1cnc(NC(=O)c2ccc(-c3nn([C@@H]4CCN(C(=O)/C=C/CN(C)C5CC5)C4)c4ncnc(N)c34)cc2)s1 [Example 6, (R,E)-4-(4-amino-1-(1-(4-(cyclopropyl(methyl)amino)but-2-enoyl)pyrrolidin-3-yl)-1H-pyrazolo[3,4-d]pyrimidin-3-yl)-N-(5-methylthiazol-2-yl)benzamide]	< 0.1 µM	1 to 10 µM	0.1 to 1 µM
CCc1cnc(NC(=O)c2ccc(-c3nn([C@@H]4CCN(C(=O)/C=C/CN(C)C5CC5)C4)c4ncnc(N)c34)cc2)s1 [Example 9, (R,E)-4-(4-amino-1-(1-(4-(cyclopropyl(methyl)amino)but-2-enoyl)pyrrolidin-3-yl)-1H-pyrazolo[3,4-d]pyrimidin-3-yl)-N-(5-ethylthiazol-2-yl)benzamide]	< 0.1 µM	0.1 to 1 µM	< 0.1 µM
CCCc1cnc(NC(=O)c2ccc(-c3nn([C@@H]4CCN(C(=O)/C=C/CN(C)C5CC5)C4)c4ncnc(N)c34)cc2)s1 [Example 10, (R,E)-4-(4-amino-1-(1-(4-(cyclopropyl(methyl)amino)but-2-enoyl)pyrrolidin-3-yl)-1H-pyrazolo[3,4-d]pyrimidin-3-yl)-N-(5-propylthiazol-2-yl)benzamide]	< 0.001 µM	0.1 to 1 µM	< 0.1 µM
CN(C/C=C/C(=O)N1CC[C@@H](n2nc(-c3ccc(C(=O)Nc4ncc(C(F)(F)F)s4)cc3)c3c(N)ncnc32)C1)C1CC1 [Example 11, (R,E)-4-(4-amino-1-(1-(4-(cyclopropyl(methyl)amino)but-2-enoyl)pyrrolidin-3-yl)-1H-pyrazolo[3,4-d]pyrimidin-3-yl)-N-(5-(trifluoromethyl)thiazol-2-yl)benzamide]	< 0.1 µM	0.1 to 1 µM	< 0.1 µM
CN(C/C=C/C(=O)N1CC[C@@H](n2nc(-c3ccc(C(=O)Nc4ncco4)cc3)c3c(N)ncnc32)C1)C1CC1 [Example 14, (R,E)-4-(4-amino-1-(1-(4-(cyclopropyl(methyl)amino)but-2-enoyl)pyrrolidin-3-yl)-1H-pyrazolo[3,4-d]pyrimidin-3-yl)-N-(oxazol-2-yl)benzamide]	< 0.1 µM	> 10 µM	> 10 µM
CN(C/C=C/C(=O)N1CC[C@@H](n2nc(-c3ccc(C(=O)Nc4ccccn4)cc3)c3c(N)ncnc32)C1)C1CC1 [Example 15, (R,E)-4-(4-amino-1-(1-(4-(cyclopropyl(methyl)amino)but-2-enoyl)pyrrolidin-3-yl)-1H-pyrazolo[3,4-d]pyrimidin-3-yl)-N-(pyridin-2-yl)benzamide]	< 0.1 µM	0.1 to 1 µM	1 to 10 µM
CN(C/C=C/C(=O)N1CC[C@@H](n2nc(-c3ccc(C(=O)Nc4cc(C#N)ccn4)cc3)c3c(N)ncnc32)C1)C1CC1 [Example 16, (R,E)-4-(4-amino-1-(1-(4-(cyclopropyl(methyl)amino)but-2-enoyl)pyrrolidin-3-yl)-1H-pyrazolo[3,4-d]pyrimidin-3-yl)-N-(4-cyanopyridin-2-yl)benzamide]	< 0.1 µM	1 to 10 µM	0.1 to 1 µM
CN(C/C=C/C(=O)N1CC[C@@H](n2nc(-c3ccc(C(=O)Nc4cc(C5CC5)ccn4)cc3)c3c(N)ncnc32)C1)C1CC1 [Example 17, (R,E)-4-(4-amino-1-(1-(4-(cyclopropyl(methyl)amino)but-2-enoyl)pyrrolidin-3-yl)-1H-pyrazolo[3,4-d]pyrimidin-3-yl)-N-(4-cyclopropylpyridin-2-yl)benzamide]	< 0.001 µM	1 to 10 µM	0.1 to 1 µM

The remaining lines, values ahead:

IC50 (BTK)	IC50 (EGFR)	IC50 (Lck)	Compound
< 0.1 µM	0.1 to 1 µM	< 0.1 µM	CC(C)c1cnc(NC(=O)c2ccc(-c3nn([C@@H]4CCN(C(=O)/C=C/CN(C)C5CC5)C4)c4ncnc(N)c34)cc2)s1 [Example 8, (R,E)-4-(4-amino-1-(1-(4-(cyclopropyl(methyl)amino)but-2-enoyl)pyrrolidin-3-yl)-1H-pyrazolo[3,4-d]pyrimidin-3-yl)-N-(5-isopropylthiazol-2-yl)benzamide]
< 0.001 µM	1 to 10 µM	0.1 to 1 µM	CC(C)c1ccnc(NC(=O)c2ccc(-c3nn([C@@H]4CCN(C(=O)/C=C/CN(C)C5CC5)C4)c4ncnc(N)c34)cc2)c1 [Example 18, (R,E)-4-(4-amino-1-(1-(4-(cyclopropyl(methyl)amino)but-2-enoyl)pyrrolidin-3-yl)-1H-pyrazolo[3,4-d]pyrimidin-3-yl)-N-(4-isopropylpyridin-2-yl)benzamide]
< 0.001 µM	0.1 to 1 µM	0.1 to 1 µM	CN(C)C/C=C/C(=O)N1CC[C@@H](n2nc(-c3ccc(C(=O)Nc4ccccn4)cc3)c3c(N)ncnc32)C1 [Example 30, (R,E)-4-(4-amino-1-(1-(4-(dimethylamino)but-2-enoyl)pyrrolidin-3-yl)-1H-pyrazolo[3,4-d]pyrimidin-3-yl)-N-(pyridin-2-yl)benzamide]
< 0.001 µM	0.1 to 1 µM	< 0.1 µM	CC(C)c1ccnc(NC(=O)c2ccc(-c3nn([C@@H]4CCN(C(=O)/C=C/CN(C)C)C4)c4ncnc(N)c34)cc2)c1 [Example 31, (R,E)-4-(4-amino-1-(1-(4-(dimethylamino)but-2-enoyl)pyrrolidin-3-yl)-1H-pyrazolo[3,4-d]pyrimidin-3-yl)-N-(4-isopropylpyridin-2-yl)benzamide]
< 0.001 µM	0.1 to 1 µM	0.1 to 1 µM	CN(C)C/C=C/C(=O)N1CC[C@@H](n2nc(-c3ccc(C(=O)Nc4cc(C#N)ccn4)cc3)c3c(N)ncnc32)C1 [Example 32, (R,E)-4-(4-amino-1-(1-(4-(dimethylamino)but-2-enoyl)pyrrolidin-3-yl)-1H-pyrazolo[3,4-d]pyrimidin-3-yl)-N-(4-cyanopyridin-2-yl)benzamide]
